Some test systems named below: SK-OV-3 ovarian; COLO 205 colon; SW-620 colon; OVCAR-4 ovarian; RPMI-8226 leukemia; LOX IMVI melanoma; 786-0 renal; PC-3 prostate; MCF7 breast; MALME-3M melanoma.
Assay in all cases: NCI-60 cell line screen, 48 h

The text below walks through data of PubChem BioAssay (NCI).

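96-well plates; 48 h exposure; 5 concentrations. Endpoints by linear interpolation between flanking doses. Not reached: highest tested concentration assigned. Here, GI50 denotes the concentration required for 50% inhibition of growth. The concentration for full growth arrest is given as TGI.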

Consider `CC(C)N(Cc1ccc(CN(C(=O)CCl)C(C)C)cc1)C(=O)CCl`, for which the GI50 is 1830 nM with SK-OV-3 ovarian; 2160 nM with COLO 205 colon; 1450 nM in the experiment with SW-620 colon; 1380 nM with OVCAR-4 ovarian; 2060 nM in the experiment on RPMI-8226 leukemia; 290 nM with LOX IMVI melanoma. Further, the GI50 is 351 nM with 786-0 renal, 2270 nM in the experiment with PC-3 prostate, 1700 nM in the experiment with MCF7 breast and 186 nM with MALME-3M melanoma. Besides, the TGI in the experiment on SK-OV-3 ovarian came to 3.35 µM; in the experiment with COLO 205 colon, 4.36 µM; with SW-620 colon it was 4.22 µM; in the experiment with OVCAR-4 ovarian, 3.63 µM; in the experiment with RPMI-8226 leukemia, 5.13 µM; in the experiment on LOX IMVI melanoma, 1.05 µM. Also, the TGI stood at 1.3 µM with 786-0 renal, 5.48 µM in the experiment on PC-3 prostate, 12.1 µM in the experiment on MCF7 breast and 0.453 µM in the experiment on MALME-3M melanoma.
As to `COc1cc(C2C3=C(COC3=O)N(CCO)c3cc4c(cc32)OCCO4)cc(OC)c1OC` (centres undefined), the GI50 in the experiment with SK-OV-3 ovarian is 224 nM; with COLO 205 colon it was 150 nM; with SW-620 colon, 226 nM; in the experiment on OVCAR-4 ovarian, 416 nM; with RPMI-8226 leukemia it was 149 nM; in the experiment with LOX IMVI melanoma, 286 nM. Further, the GI50 in the experiment on 786-0 renal is 369 nM; in the experiment with PC-3 prostate, 185 nM; in the experiment with MCF7 breast, 192 nM; in the experiment with MALME-3M melanoma it was above 50000 nM. The TGI was above 14.5 µM with SK-OV-3 ovarian; 0.409 µM with COLO 205 colon; above 50 µM in the experiment on SW-620 colon; above 50 µM with OVCAR-4 ovarian; above 50 µM with LOX IMVI melanoma; above 50 µM in the experiment with 786-0 renal. The TGI with PC-3 prostate, in the experiment with MCF7 breast and in the experiment on MALME-3M melanoma was above 50 µM in each case.
Regarding `COc1ccccc1S(=O)(=O)Nc1ccc2c3c(cc(CCC(=O)NCCCCNc4cccc5c4C(=O)N(C4CCC(=O)NC4=O)C5=O)cc13)C(=O)N2C` (centres undefined), the GI50 was 1400 nM in the experiment on SK-OV-3 ovarian; 459 nM with COLO 205 colon; 240 nM in the experiment on SW-620 colon; 259 nM in the experiment with OVCAR-4 ovarian; 625 nM in the experiment on RPMI-8226 leukemia; 3470 nM in the experiment with LOX IMVI melanoma. For the same compound, the GI50 was 2180 nM in the experiment with 786-0 renal, 204 nM in the experiment on PC-3 prostate, 264 nM in the experiment on MCF7 breast and 91.5 nM in the experiment with MALME-3M melanoma. Moreover, the TGI in the experiment with SK-OV-3 ovarian is above 100 µM; with COLO 205 colon it was 8.08 µM; in the experiment with SW-620 colon, above 100 µM; in the experiment on OVCAR-4 ovarian, 1.44 µM; in the experiment with RPMI-8226 leukemia, above 100 µM; in the experiment on LOX IMVI melanoma, above 100 µM. In addition, the TGI is above 100 µM with 786-0 renal, above 100 µM in the experiment on PC-3 prostate, above 100 µM in the experiment on MCF7 breast and 0.559 µM in the experiment on MALME-3M melanoma.
`CN=C1C=CC(=C(c2ccc(N(C)C)cc2)c2ccc(N(C)C)cc2)C=C1`: the GI50 in the experiment on SK-OV-3 ovarian is 261 nM; with COLO 205 colon, 184 nM; in the experiment with SW-620 colon, 185 nM; with OVCAR-4 ovarian, 378 nM; with RPMI-8226 leukemia, 54.3 nM; in the experiment with LOX IMVI melanoma, 201 nM. In addition, the GI50 is 292 nM in the experiment on 786-0 renal, 286 nM with PC-3 prostate, 308 nM with MCF7 breast and 406 nM with MALME-3M melanoma. Also, the TGI in the experiment on SK-OV-3 ovarian is 0.828 µM; with COLO 205 colon, 0.524 µM; with SW-620 colon, 1.35 µM; in the experiment on OVCAR-4 ovarian, 2.7 µM; in the experiment on RPMI-8226 leukemia, 0.255 µM; with LOX IMVI melanoma, 1.04 µM. Besides, the TGI with 786-0 renal is 1.18 µM; in the experiment with PC-3 prostate, 1.09 µM; with MCF7 breast, 1.05 µM; in the experiment on MALME-3M melanoma, 1.95 µM.
On to `CN(C)CCCn1c(=O)c2ccccc2c2cnc3[nH]ccc3c21`, for which the GI50 in the experiment on SK-OV-3 ovarian is 1970 nM; in the experiment on COLO 205 colon it was 686 nM; in the experiment with SW-620 colon, 529 nM; with OVCAR-4 ovarian, 1920 nM; in the experiment on RPMI-8226 leukemia it was 2230 nM; in the experiment on LOX IMVI melanoma, 631 nM. For the same compound, the GI50 with 786-0 renal was 850 nM; in the experiment on PC-3 prostate it was 1690 nM; in the experiment with MCF7 breast, 2740 nM; with MALME-3M melanoma, 1690 nM. For the same compound, the TGI turned out to be 7.11 µM in the experiment on SK-OV-3 ovarian; 3.54 µM with COLO 205 colon; 3.66 µM in the experiment on SW-620 colon; 8.63 µM in the experiment with OVCAR-4 ovarian; 7.3 µM in the experiment with RPMI-8226 leukemia; 3.27 µM with LOX IMVI melanoma. The TGI with 786-0 renal was found to be 10.9 µM; in the experiment with PC-3 prostate, 11.1 µM; in the experiment on MCF7 breast, 11.3 µM; with MALME-3M melanoma it was 4.55 µM.
Turning to `CCN(CC)CCCC(C)Nc1cc(-c2cccc(OC(F)(F)F)c2)nc2ccc(N3CCCC3)cc12` (centres undefined), the GI50 in the experiment with SK-OV-3 ovarian is 77.9 nM; in the experiment on COLO 205 colon, 213 nM; with SW-620 colon, 43.3 nM; in the experiment on OVCAR-4 ovarian it was 483 nM; in the experiment on RPMI-8226 leukemia it was 78.8 nM; with LOX IMVI melanoma it was 63.8 nM. Also, the GI50 is 158 nM in the experiment with 786-0 renal, 280 nM in the experiment on PC-3 prostate, 35.3 nM in the experiment with MCF7 breast and 67.9 nM in the experiment on MALME-3M melanoma. The TGI in the experiment with SK-OV-3 ovarian was 98.7 µM; in the experiment on COLO 205 colon, 1.51 µM; with SW-620 colon it was above 100 µM; in the experiment with OVCAR-4 ovarian, above 100 µM; in the experiment on RPMI-8226 leukemia, 13.1 µM; in the experiment with LOX IMVI melanoma, 14.6 µM. The TGI is 26.1 µM in the experiment with 786-0 renal, above 49.5 µM in the experiment with PC-3 prostate, 22.5 µM in the experiment on MCF7 breast and 32.6 µM in the experiment on MALME-3M melanoma.
Take `O=C(NCC(F)(F)F)Nc1cccc(-c2cnc3cc(-c4ccc(F)cc4)ccn23)c1`: the GI50 in the experiment with SK-OV-3 ovarian is 1960 nM; with COLO 205 colon it was 531 nM; with SW-620 colon, 515 nM; with OVCAR-4 ovarian it was 1660 nM; in the experiment on RPMI-8226 leukemia, 1290 nM; with LOX IMVI melanoma, 727 nM. Also, the GI50 with 786-0 renal is 2260 nM; in the experiment with PC-3 prostate, 2220 nM; in the experiment with MCF7 breast it was 586 nM; in the experiment with MALME-3M melanoma, 541 nM. Further, the TGI was above 54.2 µM in the experiment on SK-OV-3 ovarian; above 26.7 µM with COLO 205 colon; 36.8 µM in the experiment on SW-620 colon; above 100 µM in the experiment on OVCAR-4 ovarian; 17.9 µM with RPMI-8226 leukemia; 11.2 µM with LOX IMVI melanoma. The TGI was above 100 µM in the experiment with 786-0 renal, above 100 µM with PC-3 prostate, 18.5 µM in the experiment with MCF7 breast and 46.2 µM in the experiment with MALME-3M melanoma.
Regarding `O=C1CSC(c2ccccc2Cl)N1c1nnc(Cn2cnnc2)o1` (centres undefined), the GI50 is 14900 nM in the experiment on SK-OV-3 ovarian; 10500 nM in the experiment on COLO 205 colon; 4730 nM in the experiment with SW-620 colon; 23900 nM in the experiment with OVCAR-4 ovarian; 5770 nM in the experiment on RPMI-8226 leukemia; 7430 nM in the experiment on LOX IMVI melanoma. Also, the GI50 is 13800 nM in the experiment on 786-0 renal, 11600 nM in the experiment on PC-3 prostate, 1630 nM in the experiment with MCF7 breast and 6840 nM with MALME-3M melanoma. Also, the TGI with SK-OV-3 ovarian is 75.7 µM; in the experiment on COLO 205 colon, 23.2 µM; with SW-620 colon, 27.5 µM; with OVCAR-4 ovarian, above 100 µM; with RPMI-8226 leukemia it was 95.5 µM; with LOX IMVI melanoma, 21 µM. The TGI in the experiment on 786-0 renal was 33.4 µM; in the experiment with PC-3 prostate, above 100 µM; in the experiment with MCF7 breast, 13.2 µM; in the experiment with MALME-3M melanoma, 30.6 µM.
As to `C#Cc1cccc(Nc2nc(Cl)nc3cc(NC(=O)CCl)ccc23)c1`, the GI50 in the experiment on SK-OV-3 ovarian is 2880 nM; in the experiment with COLO 205 colon, 586 nM; in the experiment on SW-620 colon, 510 nM; with OVCAR-4 ovarian it was 847 nM; in the experiment on RPMI-8226 leukemia it was 895 nM; in the experiment on LOX IMVI melanoma it was 410 nM. Further, the GI50 is 449 nM with 786-0 renal, 1050 nM in the experiment on PC-3 prostate, 610 nM in the experiment with MCF7 breast and 1000 nM in the experiment on MALME-3M melanoma. Besides, the TGI in the experiment on SK-OV-3 ovarian was 6.1 µM; in the experiment with COLO 205 colon, 1.35 µM; with SW-620 colon, 1.21 µM; in the experiment on OVCAR-4 ovarian, 2.69 µM; in the experiment on RPMI-8226 leukemia, 4.61 µM; with LOX IMVI melanoma it was 0.809 µM. Also, the TGI worked out at 0.949 µM in the experiment on 786-0 renal, 4.71 µM with PC-3 prostate, 3.12 µM in the experiment on MCF7 breast and 2.25 µM with MALME-3M melanoma.
As to `CCOC(=O)C(Cc1ccc(N(CCCl)CCCl)cc1)NC(=O)C(Cc1ccccc1)NC=O` (centres undefined), the TGI with SK-OV-3 ovarian came out at 0.634 µM; with COLO 205 colon it was 0.322 µM; in the experiment with SW-620 colon, 0.414 µM; with OVCAR-4 ovarian it was 0.123 µM; in the experiment on RPMI-8226 leukemia it was 0.355 µM; with LOX IMVI melanoma, 0.301 µM. The TGI with 786-0 renal turned out to be 0.303 µM; with PC-3 prostate it was 0.406 µM; in the experiment on MCF7 breast it was 0.502 µM; in the experiment with MALME-3M melanoma it was 0.191 µM.
`C1CN(c2nnc(N3CCC3)nn2)C1`: the TGI with SK-OV-3 ovarian was above 100 µM; in the experiment on COLO 205 colon, above 92.4 µM; in the experiment on SW-620 colon, 59 µM; with OVCAR-4 ovarian, above 64.6 µM; in the experiment on RPMI-8226 leukemia, above 100 µM; in the experiment with LOX IMVI melanoma, 36.1 µM. In addition, the TGI was 49.5 µM in the experiment on 786-0 renal, above 60 µM with PC-3 prostate, above 72.2 µM in the experiment on MCF7 breast and above 79.3 µM with MALME-3M melanoma.
Consider `Cc1cc(N(CCOS(C)(=O)=O)CCOS(C)(=O)=O)ccc1C(=O)O`, for which the GI50 is above 100000 nM in the experiment with SK-OV-3 ovarian; above 100000 nM in the experiment on COLO 205 colon; above 100000 nM in the experiment with SW-620 colon; above 100000 nM in the experiment on OVCAR-4 ovarian; above 100000 nM in the experiment on RPMI-8226 leukemia; 73500 nM in the experiment on LOX IMVI melanoma. The GI50 in the experiment on 786-0 renal is above 100000 nM; with PC-3 prostate, above 100000 nM; with MCF7 breast, 87400 nM; with MALME-3M melanoma, above 100000 nM. In addition, the TGI with SK-OV-3 ovarian, in the experiment on COLO 205 colon, in the experiment on SW-620 colon, in the experiment on OVCAR-4 ovarian, in the experiment on RPMI-8226 leukemia and in the experiment with LOX IMVI melanoma was above 100 µM in each case. The TGI in the experiment on 786-0 renal, in the experiment on PC-3 prostate, in the experiment with MCF7 breast and in the experiment with MALME-3M melanoma was above 100 µM each time.
